Read-outs that look alike come from different tables or passages of the source.
Key:
cabbage PLD α = cabbage PLD α (Brassica oleracea var. capitata, UniProt P55939); assay: NAE inhibition of highly purified cabbage PLD α; details: for remaining activity at 1 µM: read-out: cabbage PLD activity, % of the control; for inhibition of cabbage PLD α: submicromolar to low micromolar amounts (FIG. 6)
S. chromofuscus PLD = assay: NAE effect on S. chromofuscus PLD (production of radiolabeled phosphatidic acid); details: submicromolar to low micromolar amounts (FIG. 6)
castor bean PLD α = castor bean PLD α (Ricinus communis, UniProt Q41142); assay: biochemical; type: biochemical
Sequence of castor bean PLD α (Q41142 31-808 limits assumed): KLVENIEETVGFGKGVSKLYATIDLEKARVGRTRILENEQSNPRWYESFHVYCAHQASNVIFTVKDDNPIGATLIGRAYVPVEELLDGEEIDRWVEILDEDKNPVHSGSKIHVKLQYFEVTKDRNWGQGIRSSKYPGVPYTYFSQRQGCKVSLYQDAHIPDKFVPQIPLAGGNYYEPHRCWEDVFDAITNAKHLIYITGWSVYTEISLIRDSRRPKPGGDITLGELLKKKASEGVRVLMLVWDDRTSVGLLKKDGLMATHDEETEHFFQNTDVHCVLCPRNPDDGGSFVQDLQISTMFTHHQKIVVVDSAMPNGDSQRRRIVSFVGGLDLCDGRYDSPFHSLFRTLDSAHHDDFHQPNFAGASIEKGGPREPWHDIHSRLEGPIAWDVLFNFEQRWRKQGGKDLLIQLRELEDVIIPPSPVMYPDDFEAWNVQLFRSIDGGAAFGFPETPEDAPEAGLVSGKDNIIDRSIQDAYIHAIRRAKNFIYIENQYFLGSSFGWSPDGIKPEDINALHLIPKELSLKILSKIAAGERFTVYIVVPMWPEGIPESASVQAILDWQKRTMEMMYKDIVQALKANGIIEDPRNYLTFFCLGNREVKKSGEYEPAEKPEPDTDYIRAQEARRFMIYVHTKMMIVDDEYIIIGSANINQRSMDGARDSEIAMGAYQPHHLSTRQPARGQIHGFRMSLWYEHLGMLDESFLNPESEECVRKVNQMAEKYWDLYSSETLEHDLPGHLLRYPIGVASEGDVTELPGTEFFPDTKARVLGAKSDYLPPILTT

red Gerber daisy = assay: Days before wilting and petal collapse, random blind comparison
long-stem pink roses = assay: Appearance of long-stem pink roses; type: in vivo, rose; set-up: key to Roses appearance (mark): *: Best Appearance; details: after 7 days; for Size of Flower Bloom (Cross-Sectional Width at Tip): 2 ml of test solution at day zero, in water
carnations = assay: Appearance of carnation blooms (brown petals, corolla size); type: in vivo; details: after 14 days
Description: In related studies, the appearance of visible signs of senescence (brown petals) and size of the carnation corolla were evaluated at different concentrations of NAE12:0 (Table 4).

white carnation = assay: Stem wilt of cut carnations (angle of declination at nodes below flower head); type: in vivo; details: for Angle of bend of stem, 2nd Node Below Flower / Angle of bend of stem, 3rd Node Below Flower: after 14 days, single stems separated by /
Description: Because NAE inhibited PLD cc activity in vitro, and because PLD activity has been associated with cellular damage in senescing plant tissues, the effect of NAE-containing solutions was tested as senescence-delaying agents for cut flowers. Several parameters were examined with carnations, stem wilt, and flower cross-sectional width and appearance. For stem wilt, the angle of declination at the second and third nodes from the flower head was measured from photographs taken at 14 days after treatments (Table 3). Flowers were either dipped in agar, or not, then dipped into water or NAE 12:0 at 0.1 mM. The larger the angle reported, the greater the wilt or bend of the stem.

[1] = Solubility of NAEs and NAE formulations in aqueous solutions; type: physicochemical; details: longer acyl chain NAEs in the formulations
PLD = details: Ryu et al., 1997; cited from earlier work
[2] = agar-dipped stem in 0.1 mM NAE 12:0 (n = 2)

Sequence of cabbage PLD α (P55939 37-812): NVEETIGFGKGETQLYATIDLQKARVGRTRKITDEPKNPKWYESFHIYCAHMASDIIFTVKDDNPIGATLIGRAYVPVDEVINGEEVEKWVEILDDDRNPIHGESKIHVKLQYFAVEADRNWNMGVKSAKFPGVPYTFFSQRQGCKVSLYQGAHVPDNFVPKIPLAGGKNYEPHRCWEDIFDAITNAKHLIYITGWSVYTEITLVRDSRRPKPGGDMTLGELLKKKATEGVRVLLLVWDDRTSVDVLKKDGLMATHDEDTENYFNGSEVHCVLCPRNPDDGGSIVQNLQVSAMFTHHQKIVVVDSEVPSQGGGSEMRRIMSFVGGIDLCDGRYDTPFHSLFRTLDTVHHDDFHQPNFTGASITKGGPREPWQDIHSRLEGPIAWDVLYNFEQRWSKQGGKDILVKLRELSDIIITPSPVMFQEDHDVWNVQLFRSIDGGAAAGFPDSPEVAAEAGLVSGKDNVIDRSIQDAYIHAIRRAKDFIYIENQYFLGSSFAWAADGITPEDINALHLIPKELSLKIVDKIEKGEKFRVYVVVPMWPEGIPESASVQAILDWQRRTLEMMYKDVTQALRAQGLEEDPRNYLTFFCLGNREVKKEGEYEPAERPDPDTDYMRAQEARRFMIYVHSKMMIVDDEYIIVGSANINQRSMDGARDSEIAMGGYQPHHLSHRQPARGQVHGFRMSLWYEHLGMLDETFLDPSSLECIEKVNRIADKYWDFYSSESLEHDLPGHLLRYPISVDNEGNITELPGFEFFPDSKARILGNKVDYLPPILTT

CCCCCCCCCCCCCC(=O)O [myristic acid, reference compound]
cabbage PLD activity (cabbage PLD α; in the presence of 10 μM): unchanged

CCCCCCCCCCCC(=O)NCCO [NAE12:0, N-lauroylethanolamine]
inhibition of S. chromofuscus PLD (S. chromofuscus PLD): but not of S. chromofuscus PLD
IC50 (castor bean PLD α): 0.13 µM
castor bean PLD α activity (castor bean PLD α): no activity
prevention of petal collapse versus water or Aquaplus (red Gerber daisy; 0.2 mM, blind comparison): far superior in preventing petal collapse
Number of Days Before Wilting (red Gerber daisy; NAE 12:0 0.2 mM aqueous solution, Aquaplus dissolved in water according to manufacturer's instructions): 12 days
Size of Flower Bloom (Cross-Sectional Width at Tip) (long-stem pink roses; 0.0004 mM): 1.0 cm
Size of Flower Bloom (Cross-Sectional Width at Tip) (long-stem pink roses; 0.004 mM): 2.3 cm
Roses appearance (mark) (long-stem pink roses; 0.004 mM): *
Size of Flower Bloom (Cross-Sectional Width at Tip) (long-stem pink roses; 0.04 mM): 1.8 cm
Roses appearance (mark) (long-stem pink roses; 0.04 mM): *
Size of Flower Bloom (Cross-Sectional Width at Tip) (long-stem pink roses; 0.4 mM): 1.8 cm
Roses appearance (long-stem pink roses; cell spans the NAE columns 0.0004 mM to 0.4 mM): NICE APPEARANCE
Size of Flower Bloom (Cross-Sectional Width) (carnations; 0.0004 mM): 2.6 cm
Size of Flower Bloom (Cross-Sectional Width) (carnations; 0.004 mM): 3.0 cm
visible signs of flower senescence (carnations; 0.04 mM): little evidence of flower senescence
Size of Flower Bloom (Cross-Sectional Width) (carnations; 0.040 mM): 3.3 cm
Size of Flower Bloom (Cross-Sectional Width) (carnations; 0.4 mM): 3.1 cm
freshness of carnation stems (white carnation; 0.1 mM, 14 days after treatments): provided extended freshness to carnation stems
Angle of bend of stem, 2nd Node Below Flower (white carnation; NAE 12:0 only 0.1 mM (n = 3)): 8/16/12
Angle of bend of stem, 3rd Node Below Flower (white carnation; NAE 12:0 only 0.1 mM (n = 3)): 8/12/11
Angle of bend of stem, 2nd Node Below Flower (white carnation; [2]): 27/42
Angle of bend of stem, 3rd Node Below Flower (white carnation; [2]): 31/13
remaining activity at 1 µM (cabbage PLD α): 37%
inhibition of cabbage PLD α (cabbage PLD α): effective inhibitors

CCCCCCCCCCCCCCCCCC(=O)NCCO [NAE18:0, N-stearoylethanolamine]
IC50 (castor bean PLD α): 10 µM
solubility in water [1]: limited solubility in water

CCCCCCCCCCCCCCCCCCCC(=O)NCCO [NAE20:0, N-arachidoylethanolamine]
solubility in water [1]: limited solubility in water

NCCO [ethanolamine]
inhibitory effect on PLD (PLD): no inhibitory effect

CC/C=C\C/C=C\C/C=C\CCCCCCCC(=O)NCCO [NAE18:3, N-linolenoylethanolamine]
IC50 (castor bean PLD α; read-out: IC50 Values): 80 µM

CCCCCCCCCCCCCC(=O)NCCO [NAE14:0, N-myristoylethanolamine]
inhibition of S. chromofuscus PLD (S. chromofuscus PLD): but not of S. chromofuscus PLD
IC50 (castor bean PLD α): 0.1 µM
castor bean PLD α activity (castor bean PLD α): no activity
type of inhibition (castor bean PLD α): noncompetitive binding
apparent Vmax (cabbage PLD α; in the presence of 0.01 μM NAE14:0): 11.1 μmol min^−1 mg^−1 protein
type of inhibition (cabbage PLD α; increasing substrate concentration (PC), FIG. 7): noncompetitive inhibition
remaining activity at 1 µM (cabbage PLD α): 22%
inhibition of cabbage PLD α (cabbage PLD α): effective inhibitors

CCCCCCCCCCCCCCCC(=O)NCCO [NAE16:0, N-palmitoylethanolamine]
IC50 (castor bean PLD α): 5 µM
solubility in water [1]: limited solubility in water

CCCCC/C=C\C/C=C\CCCCCCCC(=O)NCCO [NAE18:2, N-linoleoylethanolamine]
IC50 (castor bean PLD α): 30 µM
